Reference: PMC5299597, “Evaluation of the safety, pharmacokinetics, pharmacodynamics, and drug-drug interaction potential of a selective Lp-PLA2 inhibitor (GSK2647544) in healthy volunteers” (International Journal of Clinical Pharmacology and …, 2016)

What was measured:
CYP3A4 [1] = target: T1, CYP3A4 (Homo sapiens, UniProt P08684); settings: A1+S vs S, the 9 subjects who received both
CYP3A4 [2] = target: T1, CYP3A4; assay: clinical; settings: plasma, oral; for AUC(0-t): AUC(0-t) of analyte; for AUC(0-t) / Cmax: geometric mean (CVb%); for Cmax: Cmax of analyte
[3] = Study 2: safety and tolerability (adverse events); settings: by treatment: simvastatin 10 mg SD N = 12; GSK2647544 80 mg b.i.d. 7 days + simvastatin N = 9
[4] = set-up: method as in PMID 9461591; settings: DM/HC pigs, vs untreated; cited from earlier work
[5] = phase 2a study; cited from earlier work
[6] = 10 mg, S = simvastatin 10 mg SD alone
[7] = A1+S = simvastatin 10 mg SD plus GSK2647544 80 mg b.i.d. for 7 days
[8] = P1+S = simvastatin 10 mg SD plus matched placebo b.i.d. for 7 days

T1 sequence (P08684 whole entry): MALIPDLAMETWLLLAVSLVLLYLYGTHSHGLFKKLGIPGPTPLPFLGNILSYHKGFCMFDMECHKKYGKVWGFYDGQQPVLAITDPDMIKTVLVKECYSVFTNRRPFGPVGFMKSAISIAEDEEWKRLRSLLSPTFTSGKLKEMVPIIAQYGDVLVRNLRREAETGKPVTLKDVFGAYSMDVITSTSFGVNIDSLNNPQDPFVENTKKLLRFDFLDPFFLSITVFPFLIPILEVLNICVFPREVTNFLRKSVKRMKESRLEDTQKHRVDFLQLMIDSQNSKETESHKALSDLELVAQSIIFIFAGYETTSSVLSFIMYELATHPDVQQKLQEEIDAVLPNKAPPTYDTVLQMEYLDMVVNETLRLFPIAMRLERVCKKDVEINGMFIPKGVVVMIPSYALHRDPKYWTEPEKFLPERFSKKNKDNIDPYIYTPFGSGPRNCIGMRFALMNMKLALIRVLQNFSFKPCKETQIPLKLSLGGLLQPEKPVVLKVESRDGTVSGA

In the case of `CCC(C)(C)C(=O)O[C@H]1C[C@@H](C)C=C2C=C[C@H](C)[C@H](CC[C@@H](O)C[C@@H](O)CC(=O)O)[C@H]21` [Simvastatin acid, simvastatin acid], the “Ratio of geometric means (90% CI), AUC(0-t)” value (CYP3A4 [1]) is reported as 3.09 (1.05, 9.03), the “Ratio of geometric means (90% CI), AUC(0–∞)” value (CYP3A4 [1]) is reported as 1.50 (0.48, 4.71) and the “Ratio of geometric means (90% CI), Cmax” value (CYP3A4 [1]) is reported as 2.30 (1.46, 3.63). It also gave an AUC(0-t) (CYP3A4 [2]; [6]) of 2.49 ng·h/mL, a Cmax (CYP3A4 [2]; [6]) of 0.504 ng/mL and a Tmax (CYP3A4 [2]; 10 mg, tmax of analyte, median (range), S = simvastatin 10 mg SD alone) of 4.04 h. It also gave an AUC(0-t) (CYP3A4 [2]; [7]) of 7.93 ng·h/mL, an AUC(0-t) (CYP3A4 [2]; [8]) of 2.14 ng·h/mL and a Cmax (CYP3A4 [2]; [7]) of 1.3 ng/mL. For the same compound, the Cmax (CYP3A4 [2]; [8]) was 0.351 ng/mL, the Tmax (CYP3A4 [2]; median tmax of analyte, simvastatin alone) was 4 h and the Tmax (CYP3A4 [2]; median tmax of analyte, simvastatin in combination with GSK2647544) was 6 h. It also gave a Tmax (CYP3A4 [2]; tmax of analyte, median (range), A1+S = simvastatin 10 mg SD plus GSK2647544 80 mg b.i.d. for 7 days) of 5.92 h and a Tmax (CYP3A4 [2]; tmax of analyte, median (range), P1+S = simvastatin 10 mg SD plus matched placebo b.i.d. for 7 days) of 5.92 h.
For `CCC(C)(C)C(=O)O[C@H]1C[C@@H](C)C=C2C=C[C@H](C)[C@H](CC[C@@H]3C[C@@H](O)CC(=O)O3)[C@H]21` [Simvastatin, simvastatin], the Abdominal discomfort [3] was 0 n (%), the Abdominal distention [3] was 0 n (%) and the “Any AE” value [3] was 1 (8%) n (%). The Application site rash [3] was 1 (8%) n (%), the Arthragia [3] was 0 n (%) and the Back pain [3] was 0 n (%). For the same compound, the Dizziness [3] was 0 n (%), the Eructation [3] was 0 n (%) and the Headache [3] was 0 n (%). The Nasopharyngitis [3] was 0 n (%), the Pain in extremity [3] was 0 n (%) and the Pollakiuria [3] was 1 (8%) n (%).
In the case of `CCN(CC)CCN(Cc1ccc(-c2ccc(C(F)(F)F)cc2)cc1)C(=O)Cn1c(SCc2ccc(F)cc2)nc(=O)c2c1CCC2` [darapladib], the “extent of immunoglobulin-G brain parenchyma penetration” value [4] is listed as “numerically reduced” and the “total amount of brain amyloid-β peptide 1-42 deposition” value [4] is listed as “significantly lowered”.
In the case of `COCCN1CCC(N(Cc2ccc(-c3ccc(C(F)(F)F)cc3)cc2)C(=O)Cn2c(SCc3cccc(F)c3F)cc(=O)c3ccccc32)CC1` [rilapladib], the cognitive outcomes [5] is given as “improved cognitive outcomes”.
